# Source: patent US11660303B2, “2-phenylimidazo[4,5-b]pyridin-7-amine derivates useful as inhibitors of mammalian tyrosine kinase ROR1 activity” (KANCERA AB, priority 2016, dated 2023)
# What was measured:
# Assay type in all cases: cell-based
# [1] = tested on: SEM cells; experiment: Flow cytometry Annexin V/PI apoptosis assay, SEM; conditions: B-cell acute lymphoblastic leukemia (B-ALL), incubation 48 h
# Description: (§1) Flow Cytometry Annexin V/PI Apoptosis Assay
# (§2) An amount of 1 ml (10^5 cells/mL) of cells were seeded in each well of 6-well plates with and without compounds for 48 h. Cells were collected, washed with PBS, suspended in 100 μL of Annexin-V binding buffer (BD Biosciences) containing FITC-conjugated Annexin-V and PI (BD Biosciences) and incubated at room temperature in the dark for 20 min. After 20 min of incubation, 150 μL Annexin-V binding buffer was added. Viable cells were identified as the double negative Annexin-V and PI population. Samples were analyzed by a FACS Canto II Flow-cytometer (BD Biosciences).
# (§3) Results, in terms of IC50 (μM), are shown in Table 4 for a representative compound of the invention, viz. Example 172.
# [2] = tested on: Granta-519; experiment: MTT cytotoxicity assay, Granta-519; conditions: Homo sapiens, Granta-519, Mantle Cell Lymphoma (MCL), incubation 96 h
# Description: (§4) The MTT assay (Sigma-Aldrich) was used to measure cytotoxic capability of the ROR1 tyrosine kinase inhibitors (ROR1-TKI). Briefly, 2×10^4 cancer cells were incubated in triplicates in 200 μL of RPMI-1640 containing 10% FCS in 96 well plates. ROR1-TKI (dissolved in DMSO), were added to the cells. Cells treated with DMSO were used as negative control. Cells were incubated for 48, 72 or 96 h. An amount of 20 μL MTT solution was added and the cell suspension was incubated for 4 h at 37 degrees C. The reaction was stopped by adding 100 μL MTT solvent (10% SDS in 0.01 M HCl) and was incubated for further 2-4 h. The plate was then read by a microplate reader at 570 nm.
# as §3
# [3] = tested on: H82; experiment: Alamar Blue cell viability assay, H82; conditions: Homo sapiens, NCI-H82; H82, Small cell lung cancer, alamarBlue, incubation 72 h
# Description: (§5) Alamar Blue Cell Viability Assay
# (§6) Cells were plated 12 hours prior to start of drug treatment, which lasted for 72 hours for all cytotoxicity experiments. Cell viability was estimated by alamarBlue™ Cell Viability Reagent (ThermoFisher, Waltham, Mass.) per manufacturer's instructions.
# as §3
# [4] = tested on: HPB; experiment: Flow cytometry Annexin V/PI apoptosis assay, HPB; conditions: T-cell acute lymphoblastic leukemia (T-ALL), incubation 48 h
# Description: as §1, §2, §3
# [5] = tested on: H1963; experiment: Alamar Blue cell viability assay, H1963; conditions: Homo sapiens, NCI-H1963; H1963, Small cell lung cancer, alamarBlue, incubation 72 h
# Description: as §5, §6, §3
# [6] = tested on: H1975; experiment: MTT cytotoxicity assay, H1975; conditions: Homo sapiens, NCI-H1975, H1975, Non-small cell lung cancer, incubation 72 h
# Description: as §4, §3
# [7] = tested on: Caov3; experiment: Flow cytometry Annexin V/PI apoptosis assay, Caov3; conditions: Homo sapiens, Caov-3, Caov3, Ovarian cancer (OC), incubation 48 h
# Description: as §1, §2, §3
# [8] = tested on: A2780; experiment: Flow cytometry Annexin V/PI apoptosis assay, A2780; conditions: Homo sapiens, A2780, Ovarian cancer (OC), incubation 48 h
# Description: as §1, §2, §3
# [9] = tested on: MEC-2; experiment: MTT cytotoxicity assay, MEC-2; conditions: MEC2, MEC-2, CLL cell line, DSMZ bank, (ACC 500), incubation 48 h
# Description: as §4, §3
# [10] = tested on: MIA PaCa-2; experiment: MTT cytotoxicity assay, MIA PaCa-2; conditions: Homo sapiens, MIA PaCa-2, Pancreatic cancer, incubation 48 h
# Description: as §4, §3
# [11] = tested on: HPB; experiment: MTT cytotoxicity assay, HPB; conditions: T-cell acute lymphoblastic leukemia (T-ALL), incubation 48 h
# Description: as §4, §3
# [12] = tested on: H1299; experiment: MTT cytotoxicity assay, H1299; conditions: Homo sapiens, NCI-H1299, H1299, Non-small cell lung cancer, incubation 72 h
# Description: as §4, §3
# [13] = tested on: 232-B4; experiment: MTT cytotoxicity assay, 232-B4; conditions: 232-B4, CLL cell line, ExPASy Accession No: CVCL_Y436, MTT, incubation 48 h
# Description: as §4, §3
# [14] = tested on: Kelly; experiment: MTT cytotoxicity assay, Kelly; conditions: Neuroblastoma, incubation 48 h
# Description: as §4, §3
# [15] = tested on: SKOV3; experiment: MTT cytotoxicity assay, SKOV3; conditions: Homo sapiens, SK-OV-3, SKOV3, Ovarian cancer (OC), incubation 48 h
# Description: as §4, §3
# [16] = tested on: SKOV3; experiment: Flow cytometry Annexin V/PI apoptosis assay, SKOV3; conditions: Homo sapiens, SK-OV-3, SKOV3, Ovarian cancer (OC), incubation 48 h
# Description: as §1, §2, §3
# [17] = tested on: HCC827; experiment: MTT cytotoxicity assay, HCC827; conditions: Homo sapiens, HCC827, Non-small cell lung cancer, incubation 72 h
# Description: as §4, §3
# [18] = tested on: A549; experiment: MTT cytotoxicity assay, A549; conditions: Homo sapiens, A549, Non-small cell lung cancer (NSCLC), incubation 72 h
# Description: as §4, §3
# [19] = tested on: MS; experiment: MTT cytotoxicity assay, MS; conditions: Diffuse large B-cell lymphoma (DLBCL), incubation 48 h
# Description: as §4, §3
# [20] = tested on: JVM2; experiment: MTT cytotoxicity assay, JVM2; conditions: Homo sapiens, JVM-2, JVM2, Mantle Cell Lymphoma (MCL), incubation 96 h
# Description: as §4, §3
# [21] = tested on: Reh; experiment: Flow cytometry Annexin V/PI apoptosis assay, Reh; conditions: Homo sapiens, Non-T-cell non-B-cell-acute lymphoblastic leukemia, incubation 48 h
# Description: as §1, §2, §3
# [22] = tested on: H146; experiment: Alamar Blue cell viability assay, H146; conditions: Homo sapiens, NCI-H146; H146, Small cell lung cancer, alamarBlue, incubation 72 h
# Description: as §5, §6, §3
# [23] = tested on: Caov3; experiment: MTT cytotoxicity assay, Caov3; conditions: Homo sapiens, Caov-3, Caov3, Ovarian cancer (OC), incubation 48 h
# Description: as §4, §3
# [24] = tested on: JeKo1; experiment: MTT cytotoxicity assay, JeKo1; conditions: Homo sapiens, JeKo-1, JeKo1, Mantle Cell Lymphoma (MCL), incubation 96 h
# Description: as §4, §3
# [25] = tested on: Z138; experiment: MTT cytotoxicity assay, Z138; conditions: Homo sapiens, Z-138, Z138, Mantle Cell Lymphoma (MCL), incubation 96 h
# Description: as §4, §3
# [26] = tested on: H187; experiment: Alamar Blue cell viability assay, H187; conditions: Homo sapiens, NCI-H187; H187, Small cell lung cancer, alamarBlue, incubation 72 h
# Description: as §5, §6, §3
# [27] = tested on: OCI-LY3; experiment: MTT cytotoxicity assay, OCI-LY3; conditions: Homo sapiens, OCI-LY3, Diffuse large B-cell lymphoma (DLBCL), incubation 48 h
# Description: as §4, §3
# [28] = tested on: A2780; experiment: MTT cytotoxicity assay, A2780; conditions: Homo sapiens, A2780, Ovarian cancer (OC), incubation 48 h
# Description: as §4, §3
# [29] = tested on: HDLM2; experiment: MTT cytotoxicity assay, HDLM2; conditions: Homo sapiens, HDLM-2, HDLM2, Hodgkin’s Lymphoma (HL), incubation 48 h
# Description: as §4, §3
structure (smiles),measurement,setting,value
"CCOCCN1CCN(c2ccc(-c3nc4c(NC5CCN(CC)CC5)c(Br)cnc4[nH]3)cc2)CC1 [Example 172, 6-Bromo-2-{4-[4-(2-ethoxyethyl)piperazin-1-yl]phenyl}-N-(1-ethylpiperidin-4-yl)-3H-imidazo[4,5-b]pyridin-7-amine]",IC50,[1],31 nM
same,IC50,[2],250 nM
same,IC50,[3],410 nM
same,IC50,[4],140 nM
same,IC50,[5],200 nM
same,IC50,[6],250 nM
same,IC50,[7],270 nM
same,IC50,[8],270 nM
same,IC50,[9],110 nM
same,IC50,[10],100 nM
same,IC50,[11],100 nM
same,IC50,[12],250 nM
same,IC50,[13],200 nM
same,IC50,[14],80 nM
same,IC50,[15],250 nM
same,IC50,[16],610 nM
same,IC50,[17],100 nM
same,IC50,[18],100 nM
same,IC50,[19],100 nM
same,IC50,[20],200 nM
same,IC50,[21],41 nM
same,IC50,[22],230 nM
same,IC50,[23],250 nM
same,IC50,[24],75 nM
same,IC50,[25],250 nM
same,IC50,[26],230 nM
same,IC50,[27],50 nM
same,IC50,[28],100 nM
same,IC50,[29],50 nM
